The test system of series [1] is interleukin-1β production. Put plainly: Inhibitory activity against interleukin-1β production (LPS-stimulated HL-60 cells, ELISA). Conditions: lipopolysaccharide 10 μg/mL, 3 days. Type of series: cell-based. The method, then:
Inhibitory Activity Against Interleukin-1β Production
HL-60 cells were cultured for 4 days until confluence on RPMI 1640 medium with 10% fetal bovine serum (FBS) added thereto. The medium was centrifuged. The supernatant was discarded, and the cells were then suspended at 1×10^6 cells/mL on RPMI 1640 medium with 3% FBS, and lipopolysaccharide was added to give a final concentration of 10 μg/mL. The culture was inoculated at 1 mL/well to a 24-well plate. A sample compound was added at 1 μL/well, followed by culturing for 3 days. Three days later, the amount of interleukin-1β in each culture was determined by ELISA. Each IC50 value was determined by a comparison in yield with a control to which no test sample was added.

The mark [2] stands for this setting: Homo sapiens, 72 h, Table 1, read-out: IL-1β production inhibiting activity IC50.
Setting [3] is: Homo sapiens, 72 h, Table 2, read-out: IL-1β production inhibiting activity IC50.

pIC50: −log10 of the molar value. Structures can show the parent of a compound that is named as a salt. Where two headings read alike, the source gives them in different places.

The compound `Cc1cc(-c2cc(CN(C)C)c(=O)n(CC=Cc3ccccc3)n2)ccc1F.Cl` gave a melting point of 183.6 to 184.5 °C.

Turning to `Cc1cc(-c2nn(CC=Cc3ccc(Cl)cc3)c(=O)c(N(C)C)c2C)ccc1F.Cl`, the melting point lay within 201.3 to 201.9 °C.

On to `CC(C)Cn1nc(-c2ccc(S(C)(=O)=O)cc2)cc(CN2CCNCC2)c1=O.Cl.Cl`, for which the melting point lay within 222.4 to 224.2 °C.

Consider `Cc1cc(-c2cc(CN3CCN(C)CC3)c(=O)n(Cc3ccc(Cl)cc3)n2)ccc1F.Cl.Cl`, for which the melting point was 246.4 to 249.7 °C (dec.).

On to `Cc1cc(-c2cc(CN3CCN(C)CC3)c(=O)n(Cc3ccccc3Cl)n2)ccc1F.Cl.Cl`, for which the melting point is 191 to 202 °C (dec.).

The compound `COc1ccc(-c2cc(CN(C)C)c(=O)n(CC(C)C)n2)cc1F.Cl` had a melting point of 212.4 to 212.8 °C.

Turning to `Cc1c(-c2ccc(C(F)(F)F)cc2)nn(CC(C)C)c(=O)c1N1CCN(C)CC1.Cl.Cl`, the melting point was in the range of 249.9 to 252.8 °C.

In turn, `CC(C)Cn1nc(-c2ccc(-c3ccccc3)cc2)cc(CN2CCNCC2)c1=O.Cl.Cl` had a melting point of 226.8 to 228 °C.

Compound `COc1ccc(-c2cc(CN3CCNCC3)c(=O)n(CC(C)C)n2)cc1Cl.Cl.Cl` returned a melting point of 203.6 to 204.5 °C.

`Cc1ccc(-c2cc(CN(C)C)c(=O)n(CC(C)C)n2)cc1F.Cl` [Example 8, 4-dimethylaminomethyl-6-(3-fluoro-4-methylphenyl)-2-isobutyl-2H-pyridazin-3-one hydrochloride]: the melting point was 246.5 to 248.5 °C. In addition, the pIC50 in series [1] (setting [2]) was 5.46.

Consider `COc1ccc(-c2cc(CN3CCNCC3)c(=O)n(CC3CC3)n2)cc1F` [Example 20, 2-cyclopropylmethyl-6-(3-fluoro-4-methoxyphenyl)-4-(1-piperazinyl)methyl-2H-pyridazin-3-one], for which the melting point was 111.5 to 118 °C.

Regarding `Cc1ccc(-c2cc(CN(CCO)CCO)c(=O)n(CC(C)C)n2)cc1` [Example 49, 4-N,N-bis(2-hydroxyethyl)aminomethyl-6-(4-methylphenyl)-2-isobutyl-2H-pyridazin-3-one hydrochloride], the negative-log IC50 (pIC50) in series [1] (Table 1, read-out: IL-1β production inhibiting activity IC50) was 5.45.

Compound `Cc1ccc(-c2cc(CN)c(=O)n(CC(C)C)n2)cc1` [Example 50, 4-aminomethyl-2-isobutyl-6-(4-methylphenyl)-2H-pyridazin-3-one] showed a melting point of 74.9 to 77.9 °C.

Regarding `Cc1ccc(-c2nn(CC(C)C)c(=O)c(NC(CO)CO)c2C)cc1` [Example 52, 4-(1,3-dihydroxypropan-2-yl)amino-methyl-2-isobutyl-6-(4-methylphenyl)-2H-pyridazin-3-one], the melting point was in the range of 134.1 to 135.2 °C.

As for `CSc1ccc(-c2nn(CC3CC3)c(=O)c(N(C)C)c2C)cc1.Cl` [Example 153, 2-cyclopropylmethyl-4-dimethylamino-methyl-6-[4-(methylthio)phenyl]-2H-pyridazin-3-one hydrochloride], the melting point lay within 230.2 to 232.3 °C.

Compound `CSc1ccc(-c2cc(CN(C)C)c(=O)n(CC(C)C)n2)cc1.Cl` [Example 161, 4-dimethylaminomethyl-2-isobutyl-6-[4-(methylthio)phenyl]-2H-pyridazin-3-one hydrochloride] displayed a melting point of 216.8 to 218.4 °C. Moreover, the negative logarithm of the IC50 (pIC50) in series [1] (setting [2]) was 5.56.

The compound `C#CCNCc1cc(-c2ccc(SC)cc2)nn(CC(C)C)c1=O.Cl` [Example 163, 2-isobutyl-6-[4-(methylthio)phenyl]-4-propargylaminomethyl-2H-pyridazin-3-one hydrochloride] registered a melting point of 197.5 to 198.4 °C. Further, the pIC50 in series [1] (setting [2]) was 5.56.

Take `COc1ccc(-c2cc(CN3CCN(C)CC3)c(=O)n(Cc3ccc(F)cc3)n2)cc1F` [Example 189, 2-(4-fluorobenzyl)-6-(3-fluoro-4-methoxyphenyl)-4-(4-methyl-1-piperazinyl)methyl-2H-pyridazin-3-one]: the melting point lay within 112 to 113 °C. Also, the pIC50 in series [1] (setting [2]) was 6.06.

In turn, `COc1ccc(-c2cc(CN(C)C)c(=O)n(Cc3ccc(F)cc3)n2)cc1F` [Example 190, 4-dimethylaminomethyl-2-(4-fluorobenzyl)-6-(3-fluoro-4-methoxyphenyl)-2H-pyridazin-3-one] registered a melting point of 127 to 129 °C.

`COc1ccc(-c2cc(CN3CCNCC3)c(=O)n(Cc3ccc(F)cc3)n2)cc1F` [Example 192, 2-(4-fluorobenzyl)-6-(3-fluoro-4-methoxyphenyl)-4-(1-piperazinyl)methyl-2H-pyridazin-3-one] had a melting point of 142 to 143 °C. Besides, the pIC50 in series [1] (setting [2]) is 6.19.

On to `COc1ccc(-c2cc(CN)c(=O)n(Cc3ccc(F)cc3)n2)cc1F` [Example 194, 4-aminomethyl-2-(4-fluorobenzyl)-6-(3-fluoro-4-methoxyphenyl)-2H-pyridazin-3-one], for which the melting point lay in the range of 145 to 149 °C.

The compound `COc1ccc(-c2cc(CN(C)C)c(=O)n(CCCc3ccc(F)cc3)n2)cc1F` [Example 197, 4-dimethylaminomethyl-6-(3-fluoro-4-methoxyphenyl)-2-[3-(4-fluorophenyl)propyl]-2H-pyridazin-3-one] registered a melting point of 97 to 100 °C.

As to `COc1ccc(-c2cc(CN)c(=O)n(CCCc3ccc(F)cc3)n2)cc1F` [Example 200, 4-aminomethyl-6-(3-fluoro-4-methoxyphenyl)-2-[3-(4-fluorophenyl)propyl]-2H-pyridazin-3-one], the melting point lay within 82 to 84 °C.

The compound `COc1ccc(-c2cc(CN(C)C)c(=O)n(Cc3ccc(Cl)cc3)n2)cc1F` [Example 203, 2-(4-chlorobenzyl)-4-dimethylaminomethyl-6-(3-fluoro-4-methoxyphenyl)-2H-pyridazin-3-one] showed a melting point of 95.3 to 96.7 °C.

For the compound `COc1ccc(-c2cc(CN)c(=O)n(Cc3ccc(Cl)cc3)n2)cc1F` [Example 205, 4-aminomethyl-2-(4-chlorobenzyl)-6-(3-fluoro-4-methoxyphenyl)-2H-pyridazin-3-one], the melting point lay in the range of 128.5 to 131.4 °C.

Compound `COc1ccc(-c2cc(CN3CCN(C)CC3)c(=O)n(Cc3ccc(F)c(F)c3)n2)cc1F` [Example 207, 2-(3,4-difluorobenzyl)-6-(3-fluoro-4-methoxyphenyl)-4-(4-methyl-1-piperazinyl)methyl-2H-pyridazin-3-one] showed a melting point of 135.4 to 136 °C. In addition, the negative-log IC50 (pIC50) in series [1] (setting [3]) was 5.57.

On to `COc1ccc(-c2cc(CN3CCN(CCO)CC3)c(=O)n(CC=Cc3ccc(Cl)cc3)n2)cc1F` [Example 210, 2-(4-chlorocinnamyl)-6-(3-fluoro-4-methoxyphenyl)-4-[4-(2-hydroxyethyl)-1-piperazinyl]methyl-2H-pyridazin-3-one], for which, in series [1] (setting [3]), the pIC50 was 5.51.

Regarding `COc1ccc(-c2cc(CCCN3CCNCC3)c(=O)n(CC3CC3)n2)cc1F` [Example 213, 2-cyclopropylmethyl-6-(3-fluoro-4-methoxyphenyl)-4-[3-(1-piperazinyl)propyl]-2H-pyridazin-3-one], in series [1] (setting [2]), the negative-log IC50 (pIC50) is 6.62.

For `COc1ccc(-c2cc(CCCN)c(=O)n(CC3CC3)n2)cc1F` [Example 216, 4-(3-aminopropyl)-2-cyclopropylmethyl-6-(3-fluoro-4-methoxyphenyl)-2H-pyridazin-3-one], the negative-log IC50 (pIC50) in series [1] (setting [2]) was 5.94.

In the case of `Cc1cc(-c2cc(CN3CCN(C)CC3)c(=O)n(CCCc3ccc(Cl)cc3)n2)ccc1F` [Example 218, 2-[3-(4-chlorophenyl)propyl]-6-(4-fluoro-3-methylphenyl)-4-(4-methyl-1-piperazinyl)methyl-2H-pyridazin-3-one], in series [1] (setting [3]), the pIC50 is 5.17.

For the compound `Cc1cc(-c2cc(CN3CCN(C)CC3)c(=O)n(Cc3ccccc3Cl)n2)ccc1F` [Example 224, 2-(2-chlorobenzyl)-6-(4-fluoro-3-methylphenyl)-4-(4-methyl-1-piperazinyl)methyl-2H-pyridazin-3-one], the melting point was 149.7 to 150.9 °C.

For `Cc1cc(-c2cc(CN3CCN(C)CC3)c(=O)n(CCc3ccc(Cl)cc3)n2)ccc1F` [Example 230, 2-[2-(4-chlorophenyl)ethyl]-6-(4-fluoro-3-methylphenyl)-4-(4-methyl-1-piperazinyl)methyl-2H-pyridazin-3-one], the negative logarithm of the IC50 (pIC50) in series [1] (setting [3]) was 5.40.

As for `Cc1cc(-c2cc(CN3CCN(C)CC3)c(=O)n(Cc3c(Cl)cccc3Cl)n2)ccc1F` [Example 231, 2-(2,6-dichlorobenzyl)-6-(4-fluoro-3-methylphenyl)-4-(4-methyl-1-piperazinyl)methyl-2H-pyridazin-3-one], in series [1] (setting [3]), the pIC50 was 5.24.

Take `Cc1cc(-c2cc(CN)c(=O)n(Cc3ccccc3Cl)n2)ccc1F` [Example 237, 4-aminomethyl-2-(2-chlorobenzyl)-6-(4-fluoro-3-methylphenyl)-2H-pyridazin-3-one]: the melting point fell in the range of 97.6 to 102.2 °C.

In turn, `COc1ccc(-c2cc(CCCN3CCN(C)CC3)c(=O)n(Cc3ccc(F)cc3)n2)cc1F` [Example 239, 2-(4-fluorobenzyl)-6-(3-fluoro-4-methoxyphenyl)-4-[3-(4-methyl-1-piperazinyl)propyl]-2H-pyridazin-3-one] yielded a melting point of 108 to 109 °C.

For the compound `COc1ccc(-c2cc(CN3CCN(C)CC3)c(=O)n(CCCc3ccccc3Cl)n2)cc1F` [Example 241, 2-[3-(2-chlorophenyl)propyl]-6-(3-fluoro-4-methoxyphenyl)-4-(4-methyl-1-piperazinyl)methyl-2H-pyridazin-3-one], the pIC50 in series [1] (setting [3]) is 5.19.

In the case of `COc1ccc(-c2cc(CN3CCN(C)CC3)c(=O)n(CCCc3ccc(Cl)cc3)n2)cc1F` [Example 242, 2-[3-(4-chlorophenyl)propyl]-6-(3-fluoro-4-methoxyphenyl)-4-(4-methyl-1-piperazinyl)methyl-2H-pyridazin-3-one], in series [1] (setting [3]), the pIC50 was 5.11.

The melting point is the temperature, or range, at which the solid turns liquid. One may read the pIC50 as −log10 of the IC50, conventionally taken in molar units.

The record behind these values is patent US6861428B2, “Water-soluble phenylpyridazine compounds and compositions containing the same” (Kowa Co., Ltd., priority 2001, dated 2005).
